Structures can show the parent of a compound that is named as a salt.
Tests used:
MV4-11 = assay: Cell growth inhibitory test MV4-11 (WST-1); assay type: cell-based, human; conditions: Homo sapiens, MV4-11, 72 h, MV4-11 cells, 3 days culture
Method in brief: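 MV4-11 leukemia cells (3×10^3/well, DMEM + 10% FCS) were cultured 3 days with compound in DMSO at 5% CO2. Growth read by WST-1 absorbance at 450 nm (ref 650 nm), normalized to untreated (100%) and cell-free (0%) wells; IC50 from multiple concentrations.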

FLT3 = biological target: T1, FLT3 (Homo sapiens, UniProt P36888); assay: Inhibitory activity against FLT3 autophosphorylation using ELISA method; assay type: cell-based; conditions: MV4-11 cells, 1 hr with compound, read-out: IC50 of FLT3-phosphorylation
T1 sequence (P36888 with tags, fused parts or gaps INS600HVDFREYEYD): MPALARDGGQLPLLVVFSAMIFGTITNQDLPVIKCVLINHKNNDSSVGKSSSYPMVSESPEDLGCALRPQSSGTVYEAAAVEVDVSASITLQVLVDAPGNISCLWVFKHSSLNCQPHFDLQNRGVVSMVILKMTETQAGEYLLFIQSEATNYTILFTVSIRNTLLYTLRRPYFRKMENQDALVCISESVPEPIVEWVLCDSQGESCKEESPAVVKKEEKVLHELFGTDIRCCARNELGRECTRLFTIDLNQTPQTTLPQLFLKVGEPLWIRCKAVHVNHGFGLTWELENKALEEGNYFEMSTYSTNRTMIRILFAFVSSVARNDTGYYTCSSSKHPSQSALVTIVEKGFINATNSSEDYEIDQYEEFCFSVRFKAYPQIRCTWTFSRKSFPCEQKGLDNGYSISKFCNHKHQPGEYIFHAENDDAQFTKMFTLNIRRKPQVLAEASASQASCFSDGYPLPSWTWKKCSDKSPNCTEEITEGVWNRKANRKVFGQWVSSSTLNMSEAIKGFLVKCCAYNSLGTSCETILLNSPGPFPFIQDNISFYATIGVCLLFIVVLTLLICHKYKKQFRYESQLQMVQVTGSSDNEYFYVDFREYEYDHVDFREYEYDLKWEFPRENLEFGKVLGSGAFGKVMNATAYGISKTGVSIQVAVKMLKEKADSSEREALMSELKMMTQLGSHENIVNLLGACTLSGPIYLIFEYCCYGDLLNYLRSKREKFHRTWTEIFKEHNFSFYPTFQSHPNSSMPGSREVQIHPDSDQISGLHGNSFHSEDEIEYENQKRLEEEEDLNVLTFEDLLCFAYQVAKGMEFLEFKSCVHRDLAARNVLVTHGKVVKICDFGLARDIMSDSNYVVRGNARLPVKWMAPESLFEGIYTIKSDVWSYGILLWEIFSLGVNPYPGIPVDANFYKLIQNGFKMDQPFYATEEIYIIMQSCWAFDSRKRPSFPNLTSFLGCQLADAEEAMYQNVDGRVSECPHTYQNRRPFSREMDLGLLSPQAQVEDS
Description: Pharmacological Test Example 1
Measurement of Inhibitory Activity Against FLT3 Autophosphorylation Using ELISA Method
Human leukemia cells MV4-11 (ATCC number: CRL-9591) were cultured in an IMDM medium containing 10% fetal calf serum (purchased from SIGMA) within a 5% carbon dioxide incubator until 50 to 90% confluent. The harvested cells were seeded into 96-wells, plates, containing an IMDM medium containing 0.1% fetal calf serum, in a 96-well multiscreen plate in an amount of 5.0×10^5 per well, a solution of the test compound in dimethyl sulfoxide was added to each well, and the cultivation was continued at 37° C. for one hr. The medium was removed, followed by washing with phosphate buffered saline. A lysis buffer (60 μl) (20 mM HEPES (pH 7.4), 150 mM NaCl, 0.2% Triton X-100, 10% glycerol, 5 mM sodium orthovanadylate, 5 mM disodium ethylenediaminetetraacetate, and 2 mM Na4P2O7) was then added thereto. The mixture was shaken at 4° C. for 2 hr to prepare a cell extracts.
Separately, phosphate buffered saline (50 μl, pH 7.4) containing 5 μg/ml of anti-phospho-tyrosine antibody (PY20; purchased from Transduction Laboratories) was added to a 96-well microplate for ELISA (Maxisorp; purchased from NUNC), followed by standing at 4° C. overnight to form a solid phase on the wells. After washing of the plate, 250 μl of a blocking solution was added, followed by standing at room temperature for 3 hr to perform blocking. After washing, the whole quantity of the cell extract was transferred to the wells, and the plate was then allowed to stand at 4° C. overnight. After washing, an anti-FLT3 antibody (Flt3/Flk2 (C-20), purchased from Santa Cruz Biotechnology) was allowed to react at room temperature for 2 hr, and, after washing, a peroxidase-labeled anti-rabbit Ig antibody (purchased from Amersham) was allowed to react at room temperature for one hr. After washing, a chromophoric substrate for peroxidase (purchased from Sumitomo Bakelite Co., Ltd.) was added thereto to initiate a reaction. After a suitable level of color development, a reaction termination solution was added to stop the reaction, and the absorbance at 450 nm was measured with a microplate reader. The FLT3-phosphorylation activity for each well was determined by presuming the absorbance without the addition of the medicament to be 100% FLT3-phosphorylation activity and the absorbance with the addition of a large excess of a positive control (Compound 1, 10 μM) to be 0% FLT3-phosphorylation activity. The concentration of the test compound was varied on several levels, the FLT3-phosphorylation inhibitory activity was determined for each case, and the concentration of the test compound necessary for inhibiting 50% of FLT3-phosphorylation (IC50) was calculated.

MOLM13 [1] = assay: Cell growth inhibitory activities on cultured human leukemia cells MOLM-13 (WST-1); assay type: cell-based; conditions: Homo sapiens, MOLM-13, 72 h, 3 days culture
MOLM13 [2] = assay: Cell growth inhibitory activity using MTT method (MOLM13); assay type: cell-based, human; conditions: Homo sapiens, MOLM-13, 72 h, MOLM13 cells
Description: Pharmacological Test Example 3
Measurement of Cell Growth Inhibitory Activity Using MTT Method
Human leukemia cell line MOLM13 (subdivided from Hayashibara Biochemical Laboratories, Inc.) was cultured in an RPMI medium containing 10% fetal calf serum (purchased from Asahi Techno Glass Corporation) within a 5% carbon dioxide incubator until the cell density reached 50 to 90% of the maximum cell density. These cells were seeded into wells, containing an RPMI medium containing 10% fetal calf serum, in a 96-well flat bottom plate in an amount of […] per well. The amount of the solution of the medium in each well was brought to 100 μl, and a test compound was added thereto to 500 ng, 100 ng, 20 ng, and 4 ng per ml. After culture within an incubator for 72 hr, 10 μl of a 5 mg/ml MTT (3-(4,5-dimethylthiazol-2-yl)-2,5-diphenyl tetrazolium bromide) solution (purchased from SIGMA) was added to the medium, and a reaction was allowed to proceed for 4 hr. Thereafter, 100 μl of a 0.04 N hydrochloric acid-isopropanol solution was added to completely dissolve the resultant MTT formazan crystal. After the dissolution, absorbance at 550 nm was measured using 620 nm as a reference wavelength with a microplate reader (DIGISCAN) (It is regarded that, in the MTT method, the viable cell count is reflected, and linearity is observed in a cell count per well range of 5×10^5 to 2×10^2 cells). After 72 hr, the absorbance of only the medium free from cells was subtracted from the absorbance of the well without the addition of the test compound to determine a value which was presumed to be 100%. On the other hand, the absorbance with the addition of the compound was expressed in terms of % growth.

MOLM13 [3] = assay: Tumor growth inhibitory activities in nude mice xenograft model inoculated with human leukemia cells MOLM13; assay type: in vivo; conditions: Mus musculus, MOLM-13, po, 240 h; 50 mg/kg orally once a day, day 10; read-out: TGIR (%) (measurement date)
Description: Pharmacological Test Example 5
Tumor Growth Inhibitory Activities in Nude Mice Xenograft Model Inoculated with Human Leukemia Cells
Human leukemia cells MOLM13 (subdivided from Hayashibara Biochemical Laboratories, Inc.) were subcutaneously transplanted into nude mice. […] The test compound suspended or dissolved in 0.5% methylcellulose was orally administered at a dose of 0.1 ml per 10 g body weight once a day for 9 days. For the control group, only vehicle was administered.
The tumor growth inhibition rate (TGIR) was calculated as follows:
The tumor growth inhibition rate (TGIR)=(1−TX/CX)×100
wherein CX represents the volume of tumor at day X for the control group when the tumor volume at the day of the start of the administration (day 1) was presumed to be 1; and TX represents the volume of tumor at day X for test compound administration groups.

`COc1cc2nccc(Oc3ccc(NC(=O)NCCC(C)(C)C)cc3C)c2cc1OC` [Compound 3, 1-[4-(6,7-Dimethoxy-quinolin-4-yloxy)-3-methyl-phenyl]-3-(3,3-dimethyl-butyl)-urea] showed an IC50 (MV4-11) of 2 nM, an IC50 (FLT3) of 7 nM and an IC50 (MOLM13 [1]) of 3 nM.
Work on `COc1cc2nccc(Oc3ccc(NC(=O)NC4CCCC(C)(C)C4)cc3Cl)c2cc1OC` (stereo not shown) [Compound 12, 1-[3-Chloro-4-(6,7-dimethoxy-quinolin-4-yloxy)-phenyl]-3-(3,3-dimethyl-cyclohexyl)-urea] yielded an IC50 (MOLM13 [2]) of 5.37 nM, an IC50 (MV4-11) of 5 nM and an inhibition in vivo at 50 mg/kg (MOLM13 [3]) of 93.7%. It also gave an IC50 (MOLM13 [1]) of 6 nM.
With `COc1cc2nccc(Oc3ccc(NC(=O)NC4CC(C)CC(C)(C)C4)cc3Cl)c2cc1OC` (stereo not shown) [Compound 13, 1-[3-Chloro-4-(6,7-dimethoxy-quinolin-4-yloxy)-phenyl]-3-(3,3,5-trimethyl-cyclohexyl)-urea] the IC50 (MOLM13 [2]) was 3.87 nM, the IC50 (MV4-11) was 18 nM and the inhibition in vivo at 50 mg/kg (MOLM13 [3]) was 84.8%. It also gave an IC50 (MOLM13 [1]) of 21 nM.
`COc1cc2nccc(Oc3ccc(NC(=O)NC4CCCC(C)(C)C4)cc3F)c2cc1OC` (stereo not shown) [Compound 14, 1-[4-(6,7-Dimethoxy-quinolin-4-yloxy)-3-fluoro-phenyl]-3-(3,3-dimethyl-cyclohexyl)-urea] was tested, and the IC50 (MOLM13 [2]) was 5.13 nM, the IC50 (MV4-11) was 2 nM and the inhibition in vivo at 50 mg/kg (MOLM13 [3]) was 96.1%. It also gave an IC50 (MOLM13 [1]) of 3 nM.
`COc1cc2nccc(Oc3ccc(NC(=O)NC4CC(C)CC(C)(C)C4)cc3F)c2cc1OC` (stereo not shown) [Compound 15, 1-[4-(6,7-Dimethoxy-quinolin-4-yloxy)-3-fluoro-phenyl]-3-(3,3,5-trimethyl-cyclohexyl)-urea] was tested, and the IC50 (MOLM13 [2]) was 9.5 nM, the IC50 (MV4-11) was 11 nM and the inhibition in vivo at 50 mg/kg (MOLM13 [3]) was 89.4%. It also gave an IC50 (MOLM13 [1]) of 22 nM.
`COc1cc2c(Oc3ccc(NC(=O)NCCC(C)(C)C)cc3)ccnc2cc1OCCN1CCCCC1` [Compound 40, 1-{4-[6-Methoxy-7-(2-piperidin-1-yl-ethoxy)-quinolin-4-yloxy]-phenyl}-3-(3,3-dimethyl-butyl)-urea hydrochloride] was tested, and the IC50 (MV4-11) was 1 nM, the IC50 (FLT3) was 93 nM and the IC50 (MOLM13 [1]) was 2 nM.
